Entries after “also recorded” stand apart in the source; their conditions may differ.
Key:
Assay type in all cases: in vivo, human
[1] = system: adults with Fragile X Syndrome (FXS); assay: Aberrant Behavior Checklist (ABC / ABC-C subscales); details: for ABC_C_Subscale_1 Irritability / ABC_C_Subscale_2 Lethargy / ABC_C_Subscale_3 Stereotypy / ABC_C_Subscale_4 Hyperactivity / ABC_C_Subscale_5 Inappropriate Speech: undetectable FMRP males (n=5), mean ± SD
Source text: Secondary Outcome Measures: • Change in the social withdrawal subscale score of the Aberrant Behavior Checklist (ABC) through the end of the study, approximately 12 weeks. The ABC is the gold standard parent/caregiver reported behavioral outcome measure for use in development disability clinical trials. • Change in the Pediatric Anxiety Rating Scale (PARS) through the end of the study, approximately 12 weeks. The PARS is the gold standard parent/caregiver reported anxiety outcome measure for use in Fragile X Syndrome clinical trials.
The Aberrant Behavior Checklist (ABC) is a standardized rating scale used for assessing problematic behavior designed for use in developmental disabilities, with validity for use in FXS (CITE). ABC-C is the original factor structure with 5 subscales: Irritability, Lethargy, Stereotypy, Hyperactivity, and Inappropriate Speech. See, e.g., Aman et al., J. Child Adolesc Psychopharmacol. 30(8):512-521 (2020), the relevant disclosures of which are incorporated by reference for the subject matter and purpose referenced herein. ABC was only assessed chronically (two weeks after treatment). Overall, no indication that ABC changed during chronic phase.

[2] = system: adults with Fragile X Syndrome (FXS); assay: ABC-FXS subscales; design: scale not given here; details: undetectable FMRP males (n=5), mean ± SD
Source text: Tables 11-16 below summarize alternative […] scoring for the FXS patient treated with AZD7325. ABC-FXS was created for use within this population to take into account FXS-specific symptoms, and has six subscales: Irritability, Social Unresponsiveness/Lethargy, Stereotypy, Hyperactivity, Inappropriate Speech, and Social Avoidance.

[3] = system: adults with Fragile X Syndrome (FXS); assay: EEG relative band power
Source text: Brain cells communicate via electrical impulses and are active all the time, even a subject is asleep. Electroencephalogram (EEG) detects the electrical activity in the brain. EEG can measure alpha waves, beta waves, and gamma waves. FXS patients typically show low alpha (Alpha waves are involved in higher level, complex cognition) and elevated gamma (representing noise, excessive synaptic connectivity-brain cells over connecting). Gamma activations represent high frequency brain rhythms, which may coincide with functional brain activity and/or muscular activity.
EEG statistical analysis strategies used in this study include: (a) electrode-specific relative band power estimation; (b) applying crossover-trial modeling to validate the absence of period effect; and (c) testing the within-subject relative power change per condition (i.e., determining impact of AZD7325 on gamma power in a treated patient).

[4] = system: adults with Fragile X Syndrome (FXS); assay: Clinical response and adverse effects by peripheral FMRP status
Procedure: This study aims at investigating the safety, tolerability, and blood pharmacodynamics of treatment with oral administration of AZD7325 in adults with Fragile X Syndrome (FXS). This study also investigates measures of efficacy and biomarkers during treatment.
The treatment conditions are provided Table 2 below:
Peripheral levels FMRP proteins in the patients were measured by an immunoassay using an antibody specific to FMRP. A fair percentage of males with FXS show mosaicism or a mix of […] and mutation cells. FIG. 3. Peripheral blood FMRP levels from the study participants are shown in Table 4 below (measured using dried blood spot samples using Luminex® Assay; see Example 3 below). The levels of FMRP measured using dried blood spot as disclosed herein are estimated to be about 7 folds higher than the FMRP levels in the blood of the same patient.

[5] = low dose, patients having detectable peripheral FMRP
[6] = Placebo vs High dose, acute visit, FMRP undetectable subjects (n = 5)
[7] = Placebo vs High dose, acute visit, male subjects (n = 9)
[8] = Placebo vs High dose, chronic visit, FMRP undetectable subjects (n = 5)
[9] = Placebo vs High dose, chronic visit, all subjects (n = 12)
[10] = Placebo vs High dose, chronic visit, male subjects (n = 9)
[11] = Placebo vs Low dose, acute visit, all subjects (n = 12)
[12] = Placebo vs Low dose, acute visit, male subjects (n = 9)
[13] = Placebo vs Low dose, chronic visit, FMRP undetectable subjects (n = 5)
[14] = Placebo vs Low dose, chronic visit, all subjects (n = 12)
[15] = Placebo vs Low dose, chronic visit, male subjects (n = 9)
[16] = high dose relative to low dose, acute, male patients
[17] = high dose relative to low dose, acute, peripheral FMRP nondetectable patients
[18] = high dose relative to low dose, chronic, all patients
[19] = high dose relative to low dose, chronic, male patients
[20] = high dose relative to low dose, chronic, peripheral FMRP nondetectable patients
[21] = low dose vs placebo, chronic, male detectable FMRP group
[22] = low dose, male patients having undetectable peripheral FMRP

CCCNC(=O)c1nnc2c(-c3c(F)cccc3OC)cccc2c1N [AZD7325, 4-amino-8-(2-fluoro-6-methoxyphenyl)-N-propylcinnoline-3-carboxamide]
ABC lethargy and social withdrawal [1, 5]: increases | ABC lethargy and social withdrawal ([1]; low dose, patients having undetectable peripheral FMRP): reduction; also recorded: reduces | ABC irritability ([1]; low dose, regardless of FMRP status (trending), baseline to chronic): reduction; also recorded: reduces | ABC_C_Subscale_1 Irritability ([1]; high dose, baseline): 7.6 ± 7.44 | ABC_C_Subscale_2 Lethargy ([1]; high dose, baseline): 3.2 ± 3.11 | ABC_C_Subscale_3 Stereotypy ([1]; high dose, baseline): 5.0 ± 1.87 | ABC_C_Subscale_4 Hyperactivity ([1]; high dose, baseline): 9.4 ± 10.74 | ABC_C_Subscale_5 Inappropriate Speech ([1]; high dose, baseline): 5.6 ± 4.56 | ABC_C_Subscale_1 Irritability ([1]; high dose, chronic): 7.2 ± 5.36 | ABC_C_Subscale_2 Lethargy ([1]; high dose, chronic): 1.8 ± 1.48 | ABC_C_Subscale_3 Stereotypy ([1]; high dose, chronic): 3.4 ± 0.55 | ABC_C_Subscale_4 Hyperactivity ([1]; high dose, chronic): 7.0 ± 9.06 | ABC_C_Subscale_5 Inappropriate Speech ([1]; high dose, chronic): 4.4 ± 3.78 | ABC_C_Subscale_1 Irritability ([1]; low dose, baseline): 7.6 ± 7.44 | ABC_C_Subscale_2 Lethargy ([1]; low dose, baseline): 3.6 ± 2.97 | ABC_C_Subscale_3 Stereotypy ([1]; low dose, baseline): 3.8 ± 2.28 | ABC_C_Subscale_4 Hyperactivity ([1]; low dose, baseline): 7.8 ± 7.16 | ABC_C_Subscale_5 Inappropriate Speech ([1]; low dose, baseline): 5.4 ± 4.16 | ABC_C_Subscale_1 Irritability ([1]; low dose, chronic): 7.4 ± 8.02 | ABC_C_Subscale_2 Lethargy ([1]; low dose, chronic): 4.6 ± 2.70 | ABC_C_Subscale_3 Stereotypy ([1]; low dose, chronic): 4.6 ± 3.05 | ABC_C_Subscale_4 Hyperactivity ([1]; low dose, chronic): 7.2 ± 8.07 | ABC_C_Subscale_5 Inappropriate Speech ([1]; low dose, chronic): 4.6 ± 3.29 | ABC_FXS_Subscale_1 Irritability ([2]; high dose, baseline): 10.2 ± 10.52 | ABC_FXS_Subscale_2 Socially Unresponsive/Lethargic ([2]; high dose, baseline): 1.8 ± 1.92 | ABC_FXS_Subscale_3 Stereotypy ([2]; high dose, baseline): 5.0 ± 1.87 | ABC_FXS_Subscale_4 Hyperactivity ([2]; high dose, baseline): 6.4 ± 6.80 | ABC_FXS_Subscale_5 Inappropriate Speech ([2]; high dose, baseline): 5.6 ± 4.56 | ABC_FXS_Subscale_6 Social Avoidance ([2]; high dose, baseline): 1.2 ± 1.79 | ABC_FXS_Subscale_1 Irritability ([2]; high dose, chronic): 9.2 ± 7.05 | ABC_FXS_Subscale_2 Socially Unresponsive/Lethargic ([2]; high dose, chronic): 1.0 ± 1.22 | ABC_FXS_Subscale_3 Stereotypy ([2]; high dose, chronic): 3.4 ± 0.55 | ABC_FXS_Subscale_4 Hyperactivity ([2]; high dose, chronic): 4.6 ± 6.31 | ABC_FXS_Subscale_5 Inappropriate Speech ([2]; high dose, chronic): 4.4 ± 3.78 | ABC_FXS_Subscale_6 Social Avoidance ([2]; high dose, chronic): 0.6 ± 0.89 | ABC_FXS_Subscale_1 Irritability ([2]; low dose, baseline): 9.8 ± 8.23 | ABC_FXS_Subscale_2 Socially Unresponsive/Lethargic ([2]; low dose, baseline): 2.4 ± 1.52 | ABC_FXS_Subscale_3 Stereotypy ([2]; low dose, baseline): 3.8 ± 2.28 | ABC_FXS_Subscale_4 Hyperactivity ([2]; low dose, baseline): 4.2 ± 3.77 | ABC_FXS_Subscale_5 Inappropriate Speech ([2]; low dose, baseline): 5.4 ± 4.16 | ABC_FXS_Subscale_6 Social Avoidance ([2]; low dose, baseline): 2.0 ± 1.87 | ABC_FXS_Subscale_1 Irritability ([2]; low dose, chronic): 9.4 ± 9.99 | ABC_FXS_Subscale_2 Socially Unresponsive/Lethargic ([2]; low dose, chronic): 2.2 ± 2.39 | ABC_FXS_Subscale_3 Stereotypy ([2]; low dose, chronic): 4.6 ± 3.05 | ABC_FXS_Subscale_4 Hyperactivity ([2]; low dose, chronic): 4.4 ± 4.98 | ABC_FXS_Subscale_5 Inappropriate Speech ([2]; low dose, chronic): 4.6 ± 3.29 | ABC_FXS_Subscale_6 Social Avoidance ([2]; low dose, chronic): 2.4 ± 1.82 | EEG relative band power: alpha2 [3, 6]: local distant small clusters | EEG relative band power: beta [3, 6]: elevated broadly in the central and parietal regions | EEG relative band power: delta [3, 6]: local distant small clusters | EEG relative band power: alpha2 [3, 7]: central frontal power decrease | EEG relative band power: beta [3, 7]: elevates a broad region in the central and parietal regions | EEG relative band power: gamma1 [3, 7]: elevated electrodes in the right frontal region | EEG relative band power: beta [3, 8]: isolated electrodes in the parietal and occipital areas elevated | EEG relative band power: gamma [3, 8]: isolated electrodes in the parietal and occipital areas elevated | EEG relative band power: theta [3, 8]: decreased in the posterior area | EEG relative band power: beta [3, 9]: electrodes in the parietal and occipital areas elevated | EEG relative band power: gamma [3, 9]: electrodes in the parietal and occipital areas elevated | EEG relative band power: theta [3, 9]: decrease in the central area | EEG relative band power: beta [3, 10]: electrodes in the parietal and occipital areas elevated | EEG relative band power: gamma [3, 10]: electrodes in the parietal and occipital areas elevated | EEG relative band power: theta [3, 10]: decrease in the central area | EEG relative band power: beta ([3]; Placebo vs Low dose, acute visit, FMRP undetectable subjects (n = 5)): limited numbers of significantly effected electrodes | EEG relative band power: beta [3, 11]: limited numbers of significantly effected electrodes | EEG relative band power: theta [3, 11]: limited numbers of significantly effected electrodes | EEG relative band power: alpha [3, 12]: limited numbers of significantly effected electrodes | EEG relative band power: beta [3, 12]: limited numbers of significantly effected electrodes | EEG relative band power: beta [3, 13]: elevates beta power | EEG relative band power: theta [3, 13]: reduces theta band power | EEG relative band power: beta [3, 14]: increases beta and gamma band in the parietal region | EEG relative band power: gamma [3, 14]: increases beta and gamma band in the parietal region | EEG relative band power: theta [3, 14]: reduces theta band | EEG relative band power: alpha [3, 15]: retain consistent | EEG relative band power: beta [3, 15]: increases beta and gamma bands in the parietal | EEG relative band power: theta [3, 15]: reduces theta band | EEG relative band power: beta ([3]; high dose relative to low dose, acute, all patients): elevate in multiple clusters | EEG relative band power: alpha2 [3, 16]: decreased power cluster in the right central region | EEG relative band power: beta [3, 16]: elevate in multiple clusters | EEG relative band power: beta [3, 17]: elevate in multiple clusters | EEG relative band power: delta (left frontal cluster) [3, 17]: reduced delta band power | EEG relative band power: alpha2 (frontal) [3, 18]: decrease | EEG relative band power: beta [3, 18]: scattered elevated spots | EEG relative band power: delta [3, 18]: scattered elevated spots | EEG relative band power: gamma [3, 18]: scattered elevated spots | EEG relative band power: alpha2 (frontal area) [3, 19]: decrease in relative power | EEG relative band power: delta [3, 19]: electrode in left central area elevated | EEG relative band power: gamma sub-bands [3, 19]: No significant change | EEG relative band power: alpha2 (temporal side) [3, 20]: decrease in relative power | EEG relative band power: beta (temporal side) [3, 20]: decrease in relative power | EEG relative band power: gamma bands [3, 20]: same occipital electrode elevated | EEG power (beta band) ([3]; low dose vs placebo, chronic, female (detectable FMRP)): does not effect | EEG beta power [3, 21]: elevates beta power | EEG gamma 1 power (E31) [3, 21]: elevates gamma 1 power | EEG theta band power [3, 21]: reduces theta band power | EEG band power: gamma bands ([3]; low dose vs placebo, chronic, male subjects, parietal): increases beta and gamma bands in the parietal | EEG gamma 1 power (E31) ([3]; low dose vs placebo, chronic, nondetectable FMRP group): elevates gamma 1 power | EEG gamma 1 power ([3]; low dose, chronic, female subjects): does not grow gamma 1 power | gamma waves (EEG) [3, 22]: decreased gamma waves | low dose (5 mg BID) versus high dose (15 mg BID) in terms of adverse effects and signal (treatment efficacy) ([4]; human, in vivo): superior over high dose | responsiveness to treatment ([4]; low dose (5 mg twice per day), patients having undetectable peripheral FMRP): responsive; also recorded: showed responsiveness | clinical improvement [4, 22]: Clinical improvement | responsiveness to treatment [4, 5]: not responsive
